Test results as given in publication PMC9161374 (Science Translational Medicine, 2022).
≈ marks a conversion by molar mass, not a printed value. Where “and” joins values, the source holds several entries; their conditions need not be identical. Identical values can stand only once. Like-named read-outs stand apart in the source and are kept apart here.

Legend:
[1] = pKa determination (fast-UV, Sirius T3); type: physicochemical; conditions: methanol cosolvent titration (Sirius T3 Titrator); read-out: pKa Value (Basic)
Method: The pK a value of test compounds were detected by using a fast-UV method with Sirius T3 Titrator. First, the blank calibration and Fast UV buffer calibration were performed where an empty sample vial was placed in the sample position. The buffer was fully titrated, and reference spectra were collected at all pHs. The sample was then detected with the following process: Methanol was used as a cosolvent to measure the psKa (cosolvent dissociation constant). Five μL of the compound stock solution of 10 mM was added to a sample vial. Three weight/volume ratios of methanol cosolvent were tested and the total starting volume for titration was set to 1.5 mL. A spectrometer detected the turbidity, and the pH range of titration by a fast UV method was 2 to 12. The titration data was obtained from a proper titration and the psKa test result was obtained by Yasuda-Shedlovsky extrapolation method for fast UV psKa method.

[2] = Thermodynamic solubility in water; type: physicochemical; conditions: ultrapure water, 25°C
Method: Test compounds were weighed out for measuring the solubility (about 1.5 mg each in three separate 1.5 mL glass vials). For each compound, one vial was used to do the standard and the other two were used to measure the solubility in duplicate. The proper volume of ultrapure water was added to each vial of the solubility sample plate using pipettes. One stir stick was added to each vial and the vials were sealed using a molded polytetrafluoroethylene (PTFE)/silicone plug. […] Then the stir sticks were removed using a magnet, and the samples were transferred from the solubility sample plate into a filter plate with pipettes. All compounds were filtered under a vacuum condition. The filtrate was diluted 1000-fold with a mixture of H2O and acetonitrile (1:1 in v/v). The plates were vortexed for 5 min. For standards (STD), the necessary volume was calculated to dissolve each standard sample to the concentration of 1.5 mg/mL. DMSO was added to each standard sample. The standard vials were covered. The standard plate was placed on the Eppendorf Thermomixer Comfort plate shaker for 5 min at 25°C and 1100 rpm. After 5 min, each compound was completely dissolved. […]

[3] = LogP determination (1-octanol/PBS pH 7.4); type: physicochemical; conditions: 1-octanol/PBS pH 7.4, pH 7.4
Method: The stock solutions of test compounds were prepared in DMSO to 10 mM or 30 mM. The 5 μL of stock solution (30 mM) or 15 μL of stock solution (10 mM) of each sample was placed into their proper 96-well rack. […] The assay was performed in duplicate. One stir stick was added to each vial and sealed with a molded PTFE/Silicone plug. […] After incubation, the stir sticks were removed by a magnet. To separate the phases, the samples were transferred and centrifuged at 25°C at 20,000 g for 20 min. The upper (1-octanol) and lower (buffer) phases were separated and transferred to the empty tubes. Aliquots of 5 μL were taken from the upper phase, followed by 495 μL of methanol. After 1 min of a vortex, aliquots of 50 μL were taken from the diluent, followed by 450 μL of methanol. Aliquots of 50 μL were taken from the lower phase, followed by 450 μL of methanol. The samples were evaluated by LC-MS/MS analysis, and all calculations were carried out using Microsoft Excel.

[4] = Tissue distribution study in rats; type: in vivo, Sprague Dawley rats; conditions: rat, oral 100 mg/kg; for Cmax, GS-441525 in brain / Cmax, GS-441525 in kidney / Cmax, GS-441525 in liver / Cmax, GS-441525 in lung / Cmax, RTP in kidney / Cmax, RTP in liver / Cmax, RTP in lung: individual animals
Method: Three rats in each group were anesthetized at 1-, 4-, and 24-hours post-dosing. Blood samples were collected into the heparinized tubes which containing PhosSTOP and DTNB and centrifuged. Tissue samples, including liver, kidney, and lung were harvested after perfusion with saline and immediately homogenized for further analysis as previously described ([64]). […] For RMP and RTP determination, 50 μL of plasma or homogenate was immediately added to 150 μL of 2% formic acid and 5 μL of 10 μM ^13C,^15N-adenosine triphosphate (ATP) aqueous solution, then vortexed thoroughly and centrifuged at 4°C. Supernatant in a volume of 180 μL was mixed with an equivalent volume of water for solid-phase extraction (SPE) with a weak anion exchange plate (Waters Oasis WAX μElution plate). Finally, the eluate was gently evaporated to dryness under a gentle stream of air, and the residue was reconstituted with 100 μL H2O for analysis on a Waters Positive Pressure-96 processor.

SARS-CoV-2 (strain B.1) [5] = tested on: SARS-CoV-2 (strain B.1); set-up: species or system KI-hACE2 mice; conditions: mouse, in vivo
SARS-CoV-2 (strain B.1) [6] = assay: SARS-CoV-2 infection in Ad5-hACE2 mice; type: in vivo, Ad5-hACE2 BALB/c mice
[7] = tested on: SARS-CoV-2 (Omicron, B.1.1.529); conditions: Omicon, Vero E6, replicates
[8] = macaques, NCATS of NIH ref 47; cited from earlier work

Row | SMILES | Cmax, GS-441525 in brain ([4]; 1h, 100 mg/kg) | Cmax, GS-441525 in kidney ([4]; 1h, 100 mg/kg) | Cmax, GS-441525 in lung ([4]; 1h, 100 mg/kg) | Cmax, GS-441525 in kidney ([4]; 4h, 100 mg/kg) | Cmax, GS-441525 in lung ([4]; 4h, 100 mg/kg) | Cmax, RTP in lung ([4]; 4h, 100 mg/kg) | Cmax, GS-441525 in brain ([4]; 24h, 100 mg/kg) | Cmax, GS-441525 in kidney ([4]; 24h, 100 mg/kg) | Cmax, GS-441525 in lung ([4]; 24h, 100 mg/kg) | Cmax, RTP in lung ([4]; 24h, 100 mg/kg) | % Inhibition ([7]; 0.208 uM) | % Inhibition ([7]; 0.625 uM) | % Inhibition ([7]; 2.5 uM) | % Inhibition ([7]; 5 uM) | % Inhibition ([7]; 10 uM) | other results
1 | CC(C)C(=O)OC[C@H]1O[C@@](C#N)(c2ccc3c(N)ncnn23)[C@H](O)[C@@H]1O [ATV006] | 0.717 nmol/kg and 1.164 nmol/kg and 1.176 nmol/kg | 220.56 nmol/kg and 166.84 nmol/kg and 182.64 nmol/kg | 49 nmol/kg and 29.492 nmol/kg and 44.72 nmol/kg | 49.24 nmol/kg and 31.336 nmol/kg and 40.16 nmol/kg | 10.048 nmol/kg and 8.088 nmol/kg and 8.604 nmol/kg | 0.328 nmol/kg and 0.343 nmol/kg and 0.26 nmol/kg | 0 nmol/kg (2×) and 0.0506 nmol/kg | 0.54 nmol/kg and 7 nmol/kg and 0.459 nmol/kg | 0.136 nmol/kg and 1.289 nmol/kg and 0.0964 nmol/kg | 0.191 nmol/kg and 0.249 nmol/kg and 0 nmol/kg | 71.5175% and 88.4612% | 99.4508% and 99.8921% | 99.9835% and 99.9391% | 99.9795% and 99.9931% | 99.9442% | pKa [1]: 3.66; solubility at 24 h [2]: 686 µg/mL (≈ 1900 µM); logP at 1 h [3]: 0.86; Cmax, GS-441525 in liver ([4]; 1h, 100 mg/kg): 56.04 nmol/kg and 36.188 nmol/kg and 53.92 nmol/kg; Cmax, RTP in kidney ([4]; 1h, 100 mg/kg): 0.0784 nmol/kg and 0 nmol/kg and 0.0835 nmol/kg; Cmax, RTP in liver ([4]; 1h, 100 mg/kg): 0.279 nmol/kg and 1.085 nmol/kg and 1.739 nmol/kg; Cmax, RTP in lung ([4]; 1h, 100 mg/kg): 0.167 nmol/kg and 0.107 nmol/kg and 0.1 nmol/kg; Cmax, GS-441525 in brain ([4]; 4h, 100 mg/kg): 0.208 nmol/kg and 0.227 nmol/kg and 0.506 nmol/kg; Cmax, GS-441525 in liver ([4]; 4h, 100 mg/kg): 21.084 nmol/kg and 14.292 nmol/kg and 18.936 nmol/kg; Cmax, RTP in kidney ([4]; 4h, 100 mg/kg): 0.354 nmol/kg and 0.345 nmol/kg and 0.186 nmol/kg; Cmax, RTP in liver ([4]; 4h, 100 mg/kg): 1.765 nmol/kg and 0.82 nmol/kg and 0.878 nmol/kg; Cmax, GS-441525 in liver ([4]; 24h, 100 mg/kg): 0.243 nmol/kg and 2.843 nmol/kg and 0.303 nmol/kg; Cmax, RTP in kidney ([4]; 24h, 100 mg/kg): 0.0664 nmol/kg and 0.068 nmol/kg and 0 nmol/kg; Cmax, RTP in liver ([4]; 24h, 100 mg/kg): 0.325 nmol/kg and 0.223 nmol/kg and 0.759 nmol/kg; SARS-CoV-2 gRNA and sgRNA in lung (SARS-CoV-2 (strain B.1) [5]): hardly detectable; Lung viral titer, Log10 (FFU/g) (SARS-CoV-2 (strain B.1) [6]; 250mg/kg orally once daily, 2 dpi, FFA, individual mice): 3.924 Log10 (FFU/g) and 2.623 Log10 (FFU/g) and 3.577 Log10 (FFU/g) and 3.827 Log10 (FFU/g); viral load and pathological damage of the lung (SARS-CoV-2 (strain B.1) [6]; ATV006 250 mg/kg, EIDD-2801 500 mg/kg, orally once daily): reduce the viral load and pathological damage of the lung; % Inhibition ([7]; 0.069 uM): 43.9482% and 49.6397%
2 | N#C[C@@]1(c2ccc3c(N)ncnn23)O[C@H](CO)[C@@H](O)[C@H]1O [GS-441524, reference compound] | 0.094 nmol/kg and 0 nmol/kg and 0.045 nmol/kg | 42.2 nmol/kg and 25.492 nmol/kg and 37.804 nmol/kg | 6.048 nmol/kg and 4.152 nmol/kg and 6.604 nmol/kg | 28.184 nmol/kg and 26.156 nmol/kg and 22.136 nmol/kg | 4.468 nmol/kg and 3.046 nmol/kg and 3.148 nmol/kg | 0 nmol/kg (2×) and 0.0718 nmol/kg | 0.0569 nmol/kg and 0.0928 nmol/kg and 0.0692 nmol/kg | 0.0683 nmol/kg and 0.0848 nmol/kg and 0.152 nmol/kg | 0.134 nmol/kg and 0.0467 nmol/kg and 0.0435 nmol/kg | 0 nmol/kg (2×) and 0.04488 nmol/kg | 55.9865% and 27.3736% and 80.8013% | 98.5871% and 97.6862% | 99.9728% and 99.9712% | 99.9879% and 99.9871% | 99.9637% and 99.9769% | Cmax ([4]; GS-441524 in brain): 0.073 µmol/kg; Cmax ([4]; GS-441524 in kidney): 35.165 µmol/kg; Cmax ([4]; GS-441524 in liver): 8.776 µmol/kg; Cmax ([4]; GS-441524 in lung): 5.601 µmol/kg; Cmax, RTP in kidney ([4]; 1h): 0 nmol/kg; Cmax, RTP in lung ([4]; 1h): 0 nmol/kg; Cmax, GS-441525 in brain ([4]; 4h): 0 nmol/kg; Cmax, RTP in kidney ([4]; 4h): 0 nmol/kg; Cmax, RTP in kidney ([4]; 24h): 0 nmol/kg; oral bioavailability [8]: 8.3%
